Results as given in BindingDB's records for doi:10.1073/pnas.93.10.4661 (Amgen, 1996).

Legend:
Pro-neuropeptide Y [1] = molecular target: Pro-neuropeptide Y (Homo sapiens, UniProt P01303)
Pro-neuropeptide Y [2] = molecular target: Pro-neuropeptide Y (Rattus norvegicus, UniProt P07808)

Ki (Pro-neuropeptide Y [1]) [nM]	Ki (Pro-neuropeptide Y [2]) [nM]	Compound
139	0.4	CC[C@H](C)[C@H](NC(=O)[C@H](Cc1ccc(O)cc1)NC(=O)[C@H](CCCNC(=N)N)NC(=O)[C@H](CCCNC(=N)N)NC(=O)[C@H](CC(C)C)NC(=O)[C@H](CCC(N)=O)NC(=O)[C@@H](NC(=O)[C@H](CCC(=O)O)NC(=O)[C@H](Cc1ccc(O)cc1)NC(=O)[C@H](CCC(N)=O)NC(=O)[C@H](C)NC(=O)[C@H](CCCNC(=N)N)NC(=O)[C@H](CCC(N)=O)NC(=O)[C@H](CCC(=O)O)NC(=O)[C@H](Cc1c[nH]cn1)NC(=O)[C@@H](NC(=O)[C@H](C)NC(=O)[C@H](Cc1ccc(O)cc1)NC(=O)[C@H](CC(=O)O)NC(=O)CNC(=O)[C@@H]1CCCN1C(=O)[C@H](Cc1ccc(O)cc1)NC(=O)[C@H](CCSC)NC(=O)[C@@H]1CCCN1C(=O)[C@H](CCC(=O)O)NC(=O)[C@H](CC(C)C)NC(=O)[C@@H]1CCCN1C(=O)[C@H](C)N)[C@@H](C)O)[C@@H](C)O)C(=O)N[C@@H](CC(N)=O)C(=O)N[C@H](C(=O)N[C@@H](CC(C)C)C(=O)N[C@H](C(=O)N[C@@H](CCCNC(=N)N)C(=O)N1CCC[C@H]1C(=O)N[C@@H](CCCNC(=N)N)C(=O)N[C@@H](Cc1ccc(O)cc1)C(N)=O)[C@@H](C)O)[C@@H](C)O [NSC_41735]
1.9	0.3	CC[C@H](C)[C@H](NC(=O)[C@H](Cc1ccc(O)cc1)NC(=O)[C@H](CCCNC(=N)N)NC(=O)[C@H](CCCNC(=N)N)NC(=O)[C@H](CC(C)C)NC(=O)[C@H](CC(=O)O)NC(=O)[C@H](C)NC(=O)[C@H](C)NC(=O)[C@H](Cc1ccc(O)cc1)NC(=O)[C@H](CCC(N)=O)NC(=O)[C@H](C)NC(=O)[C@H](CCSC)NC(=O)[C@H](CCC(N)=O)NC(=O)[C@H](CCC(=O)O)NC(=O)[C@@H]1CCCN1C(=O)[C@@H](NC(=O)[C@H](C)NC(=O)[C@H](CC(N)=O)NC(=O)[C@H](CC(=O)O)NC(=O)CNC(=O)[C@@H]1CCCN1C(=O)[C@H](Cc1ccc(O)cc1)NC(=O)[C@@H](NC(=O)[C@@H]1CCCN1C(=O)[C@H](CCC(=O)O)NC(=O)[C@H](CC(C)C)NC(=O)[C@@H]1CCCN1C(=O)[C@H](C)N)C(C)C)[C@@H](C)O)C(=O)N[C@@H](CC(N)=O)C(=O)N[C@@H](CCSC)C(=O)N[C@@H](CC(C)C)C(=O)N[C@H](C(=O)N[C@@H](CCCNC(=N)N)C(=O)N1CCC[C@H]1C(=O)N[C@@H](CCCNC(=N)N)C(=O)N[C@@H](Cc1ccc(O)cc1)C(N)=O)[C@@H](C)O [CAS_59763-91-6]
2.3	–	H-APLEPEYPGDNATPEQMAQYAAELRRYINMLTRPRY-NH2 [CAS_59763-91-6]
